Test results from US20250051361A1, “5,6,7,8-TETRAHYDRO-2,6-NAPHTHYRIDINE DERIVATIVES AS CANCER THERAPEUTICS” (VRise Therapeutics, Inc., priority 2021, published 2025).
Where a name gives a salt, the structure may show the parent alone.

Assays:
[1] = system: AGS cells; test: In vitro cell proliferation assay in AGS cell line; assay type: cell-based; conditions: Homo sapiens; for inhibition at 3 µM: TC1: Test Concentration of 3 uM; for inhibition at 10 µM: TC2: Test Concentration of 10 uM
Description: (§1) Test 1: In Vitro Cell Proliferation Assay in HPAC and AGS Cell Lines
(§2) Growth inhibition assays was carried out using 10% FBS supplemented media. Cells are to be seeded at a concentration of 2000-3,000 cells/well in a 96-well plate. Test compounds at a concentration range from 0.1 to 30 uM will be added after 24 hours. Growth will be assessed using the MTT or CCK-8 kit for measuring reduction at 0 h (prior to the addition of the test compound) and 72 to 96 hours after the addition of test compound. Absorbance read on a BIO-RAD iMark Microplate or any equivalent micloplate reader at a wavelength of 450 nm to 600 nm. Data will be analyzed and percent inhibition due to the test compound compared to the control is calculated accordingly.

[2] = system: CT-26; test: In vitro cell proliferation assay in KRASG12 cell lines (CT-26); assay type: cell-based; conditions: Mus musculus, CT26; Cell Line CT-26; Cell Titer-Glo, 3 day (2D) or 7 day (3D)
Description: Test 2: In Vitro Cell Proliferation Assay in KRASG12 Cell lines Growth inhibition assays was carried out using 10% FBS supplemented media. Cells were seeded at a desired concentration of 1000-2,000 cells/well in a well plate with desired number of wells. Test compounds at a desired concentration range were added after 24 hours. Growth was assessed using the Cell Titer-Glo (CTG, Cell Signaling) for measuring reduction at 0 h (prior to the addition of the test compound) and 3 day (2D) or 7 day (3D) after the addition of test compound. Absorbance read on a BIO-RAD iMark Microplate or any equivalent microplate reader at a predetermined a wavelength for e.g. 450 nm. Data was be analysed and percent inhibition and/or IC50 for each test compound is calculated accordingly.

[3] = molecular target: T1, human KRAS G12D protein (Homo sapiens, UniProt P01116, G12D); test: HTRF-based nucleotide exchange assay detecting GTP binding to K-Ras; assay type: biochemical; conditions: human KRAS G12D (amino acid 2-169), SOS1 mediated exchange
T1 construct: A human KRAS G12D protein (corresponding to amino acid 2-169)
T1 sequence (P01116 2-169 isoform P01116-2 G12D): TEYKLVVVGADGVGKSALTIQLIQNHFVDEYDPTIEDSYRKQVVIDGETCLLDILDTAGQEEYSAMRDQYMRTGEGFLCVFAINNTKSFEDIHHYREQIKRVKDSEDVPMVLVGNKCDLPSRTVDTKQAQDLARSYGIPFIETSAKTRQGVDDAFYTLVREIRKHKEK
Description: Test 3: Nucleotide Exchange Assay HTRF-based nucleotide exchange assay detecting GTP binding to K-Ras A human KRAS G12D protein (corresponding to amino acid 2-169) was mixed with a a-GST Tb antibody (1.5× solution) and 10 uL of the solution was added to the reaction wells). Compounds (each 10 concentrations or any other concentration of choice at 3-fold or fold of choice for serial dilutions with a starting concentration of […] or or 100 μM or 50 uM) were then delivered to the reaction wells using acoustic dispenser (Echo, Labcyte) and incubated with the Kras/aGST-Tb antibody for 1-hour at room temperature. […] HTRF based SOS1 mediated exchange of GDP to GTP was measured on a microplate reader […] (BMG Labtech) at an excitation wavelength of 337 nm and emission wavelengths of 665 and 620 nm. No-SOS1 reaction or highest control compound concentration was used as blank and % inhibition was calculated and/or IC50 was determined using Sigmoidal dose response (variable slope) equation.

[4] = system: HPAC cells; test: In vitro cell proliferation assay in HPAC cell line; assay type: cell-based; conditions: Homo sapiens; for inhibition at 3 µM: TC1: Test Concentration of 3 uM; for inhibition at 10 µM: TC2: Test Concentration of 10 uM
Description: as §1, §2

SMILES | inhibition at 3 µM [1] | inhibition at 10 µM [1] | IC50 [2] | IC50 [3] | inhibition at 3 µM [4] | inhibition at 10 µM [4]
N#Cc1c(OCC23CCCN2C[C@H](F)C3)nc(N2CC3CCC(C2)N3)c2c1CN(c1cc(O)cc3ccccc13)CC2 (stereo partly drawn) [Ex 25, 1-(3,8-diazabicyclo[3.2.1]octan-3-yl)-3-(((2R)-2-fluorotetrahydro-1H-pyrrolizin-7a(5H)-yl)methoxy)-6-(3-hydroxynaphthalen-1-yl)-5,6,7,8-tetrahydro-2,6-naphthyridine-4-carbonitrile Hydrochloride] | 75 to 100% | 75 to 100% | 5 to 10 µM | < 25 nM | 25 to 50% | 75 to 100%
N#Cc1c(OCC23CCCN2C[C@H](F)C3)nc(N2CC3CCC(C2)N3)c2c1CN(c1cccc3cccc(Cl)c13)CC2 (stereo partly drawn) [Ex 17, 1-(3,8-diazabicyclo[3.2.1]octan-3-yl)-6-(8-chloronaphthalen-1-yl)-3-(((2R)-2-fluorotetrahydro-1H-pyrrolizin-7a(5H)-yl)methoxy)-5,6,7,8-tetrahydro-2,6-naphthyridine-4-carbonitrile Hydrochloride] | 25 to 50% | 75 to 100% | 2.5 to 5 µM | 25 to 50 nM | 25 to 50% | 75 to 100%
CN1CCC[C@H]1COc1nc(N2CC3CCC(C2)N3)c2c(c1C#N)CN(c1cccc3cccc(Cl)c13)CC2 [Ex 16, 1-(3,8-diazabicyclo[3.2.1]octan-3-yl)-6-(8-chloronaphthalen-1-yl)-3-(((S)-1-methylpyrrolidin-2-yl)methoxy)-5,6,7,8-tetrahydro-2,6-naphthyridine-4-carbonitrile Hydrochloride] | 50 to 75% | 50 to 75% | < 2.5 µM | 200 to 1000 nM | 50 to 75% | 75 to 100%
